Data taken from patent US4740233A, “Substituted 1,2,4-triazolo[1,5-a]-pyrimidine-2-sulfonamides and compositions and methods of controlling undesired vegetation and suppressing the nitrification of ammonium nitrogen in soil” (The Dow Chemical Company, priority 1986, dated 1988).

What was measured:
[1] = tested on: annual sugar beet variety (SLC03); assay: Plant growth regulator activity, postemergence; assay type: in vivo; conditions: Beta vulgaris, post-emergence, 672 h, 4 weeks after spraying; read-out: Bolting Inhibition (postemergence), concentration with observed effect
Description: (§1) Using a regular biennial variety, even a bolting-susceptible variety would require a cold treatment of around 10-16 weeks plus a hormone treatement in conjunction with specific light intensities. Thus, for a screening organism, we selected one which would consistently produce bolting on a regular schedule. The screen is run with an annual sugar beet variety (SLC03) provided by Dr. Richard J. Hecker, Fort Collins, Colo. This variety is an inbred which bolts in the 6- to 8-leaf stage without any need for vernalization. This allows the screen to be run entirely in the greenhouse with all 110 chemical compounds tested on one tray. The sugarbeets are grown in 3×3 inch square pots in a greenhouse sandy loam potting mix. The sugarbeets are sprayed with test compounds when they are 2 to 3 weeks old (2 true leaves). The compounds are dissolved in acetone and diluted with water containing Tween 20 as a wetting agent. The concentration of acetone in the final spray is 20% and the concentration of Tween 20 is 0.05 percent. The plants are examined for the appearance of a bolt 4 weeks after spraying.

[2] = tested on: nitrification of ammonium nitrogen; assay: Suppression of nitrification of ammonium nitrogen in soil; conditions: 27° C.
How it was run: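 Soil (20 g) moistened to its 1/3 bar tension value, mixed with test chemical and incubated sealed for two weeks at 27° C. Nitrate extracted with ammonium sulfate solution and measured by nitrate-specific ion electrode; value given as % NH4-N remaining.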

[3] = tested on: annual sugar beet variety (SLC03); assay: Plant growth regulator activity, preemergence; assay type: in vivo; conditions: for minimal effective concentration: Beta vulgaris, pre-emergence, 6-7 weeks, read-out: Bolting Inhibition (preemergence), concentration with observed effect
Description: as §1
Preemergence tests are conducted by spraying formulated chemical on seeds placed on potting soil. The sprayed seeds are then covered with 1/4 inch of potting soil and the pots are watered. Bolting is evaluated 6-7 weeks after the initiation of the test. At this time untreated plants have a vigorous bolting stem with visible flowers.

rice [4] = assay: Preemergent control of plant species; assay type: in vivo, Oryza sativa; conditions: Oryza sativa, pre-emergence, 336 h; 0.25 lb/acre; read-out: percent preemergent control
How it was run: (§2)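 Seeds sown in agricultural soil in greenhouse beds, then aqueous-emulsion compositions applied uniformly to the bed surface at listed rates. Beds kept two weeks under greenhouse growth conditions with watering. Control expressed as growth reduction versus water-treated beds of the same species.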

annual morning glory [5] = assay: Preemergent control of plant species; assay type: in vivo, Ipomoea spp.; conditions: Ipomoea, pre-emergence, 336 h; 0.25 lb/acre; read-out: percent preemergent control
How it was run: as §2

rape [6] = assay: Preemergent control of plant species; assay type: in vivo, Brassica napus; conditions: Brassica napus, pre-emergence, 336 h; 0.25 lb/acre; read-out: percent preemergent control
How it was run: as §2

wheat [7] = assay: Preemergent control of plant species; assay type: in vivo, Triticum aestivum; conditions: Triticum aestivum, pre-emergence, 336 h; 0.25 lb/acre; read-out: percent preemergent control
How it was run: as §2

velvetleaf [8] = assay: Preemergent control of plant species; assay type: in vivo, Abutilon theophrasti; conditions: Abutilon theophrasti, pre-emergence, 336 h; 0.25 lb/acre; read-out: percent preemergent control
How it was run: as §2

yellow nutsedge [9] = assay: Preemergent control of plant species; assay type: in vivo, Cyperus esculentus; conditions: Cyperus, pre-emergence, 336 h; 0.25 lb/acre; read-out: percent preemergent control
How it was run: as §2

soybean [10] = assay: Preemergent control of plant species; assay type: in vivo, Glycine max.; conditions: Glycine max, pre-emergence, 336 h; 0.25 lb/acre; read-out: percent preemergent control
How it was run: as §2

corn [11] = assay: Preemergent control of plant species; assay type: in vivo, Zea mays; conditions: Zea mays, pre-emergence, 336 h; 0.25 lb/acre; read-out: percent preemergent control
How it was run: as §2

jimsonweed [12] = assay: Preemergent control of plant species; assay type: in vivo, Datura stramonium; conditions: Datura stramonium, pre-emergence, 336 h; 0.25 lb/acre; read-out: percent preemergent control
How it was run: as §2

yellow foxtail [13] = assay: Preemergent control of plant species; assay type: in vivo, Setaria lutescens; conditions: Setaria, pre-emergence, 336 h; 0.25 lb/acre; read-out: percent preemergent control
How it was run: as §2

cotton [14] = assay: Preemergent control of plant species; assay type: in vivo, Gossypium spp.; conditions: Gossypium hirsutum, pre-emergence, 336 h; 0.25 lb/acre; read-out: percent preemergent control
How it was run: as §2

johnson grass [15] = assay: Preemergent control of plant species; assay type: in vivo, Sorghum halepense; conditions: Sorghum halepense, pre-emergence, 336 h; 0.25 lb/acre; read-out: percent preemergent control
How it was run: as §2

sugar beet [16] = assay: Preemergent control of plant species; assay type: in vivo, Beta saccharifera; conditions: Beta vulgaris, pre-emergence, 336 h; 0.25 lb/acre; read-out: percent preemergent control
How it was run: as §2

wild oats [17] = assay: Preemergent control of plant species; assay type: in vivo; conditions: Avena fatua, pre-emergence, 336 h; 0.25 lb/acre; read-out: percent preemergent control
How it was run: as §2

barnyardgrass [18] = assay: Preemergent control of plant species; assay type: in vivo, Echinochloa crusgalli; conditions: Echinochloa crus-galli, pre-emergence, 336 h; 0.25 lb/acre; read-out: percent preemergent control
How it was run: as §2

soybean [19] = assay: Postemergent control of plant species; assay type: in vivo, Glycine max.; conditions: Glycine max, post-emergence, 336 h, read-out: percent postemergent control
How it was run: (§3)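 Compounds in acetone mixed 1:1 with water containing 0.1% surfactant, sprayed postemergence on greenhouse plants at the 2-4 leaf stage. Growth reduction versus untreated plants of the same species scored after about two weeks.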

sorghum = assay: Postemergent control of plant species; assay type: in vivo, Sorghum vulgare; conditions: Sorghum, post-emergence, 336 h, read-out: percent postemergent control
How it was run: as §3

cotton [20] = assay: Postemergent control of plant species; assay type: in vivo, Gossypium spp.; conditions: Gossypium hirsutum, post-emergence, 336 h, read-out: percent postemergent control
How it was run: as §3

corn [21] = assay: Postemergent control of plant species; assay type: in vivo, Zea mays; conditions: Zea mays, post-emergence, 336 h, read-out: percent postemergent control
How it was run: as §3

yellow foxtail [22] = assay: Postemergent control of plant species; assay type: in vivo, Setaria lutescens; conditions: Setaria, post-emergence, 336 h, read-out: percent postemergent control
How it was run: as §3

velvetleaf [23] = assay: Postemergent control of plant species; assay type: in vivo, Abutilon theophrasti; conditions: Abutilon theophrasti, post-emergence, 336 h, read-out: percent postemergent control
How it was run: as §3

sugar beet [24] = assay: Postemergent control of plant species; assay type: in vivo, Beta saccharifera; conditions: Beta vulgaris, post-emergence, 336 h, read-out: percent postemergent control
How it was run: as §3

pigweed = assay: Postemergent control of plant species; assay type: in vivo, Amaranthus spp.; conditions: Amaranthus retroflexus, post-emergence, 336 h, read-out: percent postemergent control
How it was run: as §3

wild oats [25] = assay: Postemergent control of plant species; assay type: in vivo, Avena fatua; conditions: Avena fatua, post-emergence, 336 h, read-out: percent postemergent control
How it was run: as §3

jimsonweed [26] = assay: Postemergent control of plant species; assay type: in vivo, Datura stramonium; conditions: Datura stramonium, post-emergence, 336 h, read-out: percent postemergent control
How it was run: as §3

rape [27] = assay: Postemergent control of plant species; assay type: in vivo, Brassica napus; conditions: Brassica napus, post-emergence, 336 h, read-out: percent postemergent control
How it was run: as §3

annual morning glory [28] = assay: Postemergent control of plant species; assay type: in vivo, Ipomoea spp.; conditions: Ipomoea, post-emergence, 336 h, read-out: percent postemergent control
How it was run: as §3

crabgrass = assay: Postemergent control of plant species; assay type: in vivo, Digitaria spp.; conditions: Digitaria sanguinalis, post-emergence, 336 h, read-out: percent postemergent control
How it was run: as §3

yellow nutsedge [29] = assay: Postemergent control of plant species; assay type: in vivo, Cyperus esculentus; conditions: Cyperus, post-emergence, 336 h, read-out: percent postemergent control
How it was run: as §3

rice [30] = assay: Postemergent control of plant species; assay type: in vivo, Oryza sativa; conditions: Oryza sativa, post-emergence, 336 h, read-out: percent postemergent control
How it was run: as §3

barnyardgrass [31] = assay: Postemergent control of plant species; assay type: in vivo, Echinochloa crusgalli; conditions: Echinochloa crus-galli, post-emergence, 336 h, read-out: percent postemergent control
How it was run: as §3

wheat [32] = assay: Postemergent control of plant species; assay type: in vivo, Triticum aestivum; conditions: Triticum aestivum, post-emergence, 336 h, read-out: percent postemergent control
How it was run: as §3

johnson grass [33] = assay: Postemergent control of plant species; assay type: in vivo, Sorghum halepense; conditions: Sorghum halepense, post-emergence, 336 h, read-out: percent postemergent control
How it was run: as §3

cocklebur = assay: Postemergent control of plant species; assay type: in vivo, Xanthium spp.; conditions: Xanthium strumarium, post-emergence, 336 h, read-out: percent postemergent control
How it was run: as §3

Row | Structure (SMILES) | minimal effective concentration [1] | % NH4-N Remaining After 2 Weeks Incubation ([2]; 0.06 ppm) | % NH4-N Remaining After 2 Weeks Incubation ([2]; 0.25 ppm) | % NH4-N Remaining After 2 Weeks Incubation ([2]; 1 ppm) | % NH4-N Remaining After 2 Weeks Incubation ([2]; 4 ppm) | minimal effective concentration [3] | % NH4-N Remaining After 2 Weeks Incubation ([2]; 0.01 ppm) | % NH4-N Remaining After 2 Weeks Incubation ([2]; 10 ppm) | further results
1 | Cc1cc(C)n2nc(S(=O)(=O)Nc3c(Cl)cccc3-c3ccccc3)nc2n1 [Compound 63] | 5 µg/mL | 6% | 6% | 36% | 61% | – | – | – | –
2 | Cc1cc(C)n2nc(S(=O)(=O)Nc3cc(C(F)(F)F)ccc3Cl)nc2n1 [Compound 52] | – | – | – | 74% | – | 100 µg/mL | 0% | 91% | % NH4-N Remaining After 2 Weeks Incubation ([2]; 0.1 ppm): 39%
3 | Cc1cc(C)n2nc(S(=O)(=O)Nc3c(C)ccc(Cl)c3C)nc2n1 [Compound 65] | 12 µg/mL | 5% | 52% | 65% | 85% | – | – | – | plant injury at 280.212 g/ha (rice [4]): 30%; pest or weed control at 280.212 g/ha (annual morning glory [5]): 50%; plant injury at 280.212 g/ha (rape [6]): 20%; plant injury at 280.212 g/ha (wheat [7]): 0%; pest or weed control at 280.212 g/ha (velvetleaf [8]): 20%; pest or weed control at 280.212 g/ha (yellow nutsedge [9]): 95%; plant injury at 280.212 g/ha (soybean [10]): 100%; plant injury at 280.212 g/ha (corn [11]): 0%; pest or weed control at 280.212 g/ha (jimsonweed [12]): 90%; pest or weed control at 280.212 g/ha (yellow foxtail [13]): 95%; plant injury at 280.212 g/ha (cotton [14]): 0%; pest or weed control at 280.212 g/ha (johnson grass [15]): 95%; plant injury at 280.212 g/ha (sugar beet [16]): 100%; pest or weed control at 280.212 g/ha (wild oats [17]): 0%; pest or weed control at 280.212 g/ha (barnyardgrass [18]): 70%
4 | CCN(C)S(=O)(=O)c1ccccc1NS(=O)(=O)c1nc2nc(C)cc(C)n2n1 [Compound 16] | – | – | – | 26% | – | 400 µg/mL | 0% | 67% | % NH4-N Remaining After 2 Weeks Incubation ([2]; 0.125 ppm): 0%
5 | Cc1cc(C)n2nc(S(=O)(=O)Nc3c(F)cccc3Oc3ccc(C(F)(F)F)cc3Cl)nc2n1 [Compound 98] | 400 µg/mL | 0% | 25% | 0% | 37% | – | – | – | –
6 | COc1cccc(C=NO)c1NS(=O)(=O)c1nc2nc(C)cc(C)n2n1 [Compound 71] | – | 35% | 49% | 84% | 90% | 400 µg/mL | – | – | plant injury at 500 ppm (soybean [19]): 35%; plant injury at 500 ppm (sorghum): 0%; plant injury at 500 ppm (cotton [20]): 75%; plant injury at 500 ppm (corn [21]): 0%; pest or weed control at 500 ppm (yellow foxtail [22]): 0%; pest or weed control at 500 ppm (velvetleaf [23]): 70%; plant injury at 500 ppm (sugar beet [24]): 70%; pest or weed control at 500 ppm (pigweed): 0%; pest or weed control at 500 ppm (wild oats [25]): 0%; pest or weed control at 500 ppm (jimsonweed [26]): 60%; plant injury at 500 ppm (rape [27]): 70%; pest or weed control at 500 ppm (annual morning glory [28]): 0%; pest or weed control at 500 ppm (crabgrass): 20%; pest or weed control at 500 ppm (yellow nutsedge [29]): 0%; plant injury at 500 ppm (rice [30]): 0%; pest or weed control at 500 ppm (barnyardgrass [31]): 0%; plant injury at 500 ppm (wheat [32]): 0%; pest or weed control at 500 ppm (johnson grass [33]): 0%; pest or weed control at 500 ppm (cocklebur): 0%
7 | Cc1cc(C)n2nc(S(=O)(=O)Nc3ccccc3C#N)nc2n1 [Compound 14] | – | – | – | 52% | – | 400 µg/mL | 0% | 77% | % NH4-N Remaining After 2 Weeks Incubation ([2]; 0.1 ppm): 10%
8 | Cc1nc2nc(S(=O)(=O)Nc3ccccc3Cl)nn2c(C)c1Cl [Compound 198] | – | 22% | 37% | 53% | 74% | 400 µg/mL | – | – | observed effect (preemergence) ([3]; 400 ppm): stunting
9 | C=CCSc1ccccc1NS(=O)(=O)c1nc2nc(C)cc(C)n2n1 [Compound 66] | – | 0% | 41% | 66% | 78% | 400 µg/mL | – | – | –
10 | Cc1cc(C)n2nc(S(=O)(=O)Nc3ccccc3C(=O)c3ccccc3)nc2n1 [Compound 95] | – | 26% | 36% | 53% | 67% | 400 µg/mL | – | – | –
